This passage reports Ki results from patent US8435980B2 (AbbVie Inc., priority 2009, dated 2013).

A word on the Ki: it is the dissociation constant of the complex between target and ligand, obtained from inhibition or displacement. Low values mean higher affinity, high ones lower affinity.

T1 sequence (O00311 whole entry): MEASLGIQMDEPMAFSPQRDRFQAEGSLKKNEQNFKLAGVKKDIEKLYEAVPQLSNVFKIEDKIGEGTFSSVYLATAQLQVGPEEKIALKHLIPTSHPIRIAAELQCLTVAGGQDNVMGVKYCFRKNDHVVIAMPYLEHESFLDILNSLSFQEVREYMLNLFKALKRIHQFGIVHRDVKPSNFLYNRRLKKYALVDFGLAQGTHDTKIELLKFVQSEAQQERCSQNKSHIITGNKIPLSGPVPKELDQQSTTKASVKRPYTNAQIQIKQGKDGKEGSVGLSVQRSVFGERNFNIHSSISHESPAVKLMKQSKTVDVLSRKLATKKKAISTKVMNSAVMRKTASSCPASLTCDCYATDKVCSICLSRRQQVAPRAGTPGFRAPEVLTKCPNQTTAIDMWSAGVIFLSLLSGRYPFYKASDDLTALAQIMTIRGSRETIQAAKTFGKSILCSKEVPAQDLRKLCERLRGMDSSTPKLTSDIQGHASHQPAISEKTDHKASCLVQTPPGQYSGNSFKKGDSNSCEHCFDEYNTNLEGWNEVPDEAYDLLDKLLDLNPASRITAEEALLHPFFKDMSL
T1 sequence (Q9UBU7 whole entry partner): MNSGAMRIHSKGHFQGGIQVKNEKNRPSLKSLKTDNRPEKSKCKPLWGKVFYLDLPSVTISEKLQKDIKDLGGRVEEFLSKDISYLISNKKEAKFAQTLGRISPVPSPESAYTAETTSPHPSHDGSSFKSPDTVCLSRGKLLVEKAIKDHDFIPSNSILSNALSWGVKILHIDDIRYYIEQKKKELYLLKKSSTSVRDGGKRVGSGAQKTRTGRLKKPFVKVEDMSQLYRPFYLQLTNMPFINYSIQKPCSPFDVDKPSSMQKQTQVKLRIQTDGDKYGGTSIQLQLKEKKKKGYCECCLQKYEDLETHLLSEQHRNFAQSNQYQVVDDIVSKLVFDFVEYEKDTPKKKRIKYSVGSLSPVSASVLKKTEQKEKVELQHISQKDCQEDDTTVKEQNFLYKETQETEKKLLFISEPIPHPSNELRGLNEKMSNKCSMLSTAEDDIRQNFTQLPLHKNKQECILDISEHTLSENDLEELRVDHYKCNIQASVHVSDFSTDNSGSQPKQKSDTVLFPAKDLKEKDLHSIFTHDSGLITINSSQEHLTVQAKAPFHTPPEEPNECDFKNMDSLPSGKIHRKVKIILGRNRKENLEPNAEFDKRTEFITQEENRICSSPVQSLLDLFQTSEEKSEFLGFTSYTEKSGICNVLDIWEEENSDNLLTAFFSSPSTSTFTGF

This test has as its target T1, Cdc7 (BEV coexpressed huCDC7/DBF4) (Homo sapiens, UniProt O00311).
T1 construct: made in house; host or cells: BEV (baculovirus expression vector) co-expression; insect cells are implied but no cell line is named
Kind of test: Cdc7 enzyme inhibition assay ([33P]ATP, biotinylated peptide substrate, FlashPlate). In kind it is biochemical. Particulars: Table 3; enzyme inhibition data (Ki). As to the method:
Cdc7 (BEV coexpressed huCDC7/DBF4) is prepared internally. Cdc7 assays are conducted as follows with final concentrations as listed. […] Reactions are quenched after 1 hr by the addition of 90 μL stop buffer (50 mM EDTA, 2M NaCl). […] (Ki) for exemplary compounds.
`CN(C)c1ccc(NC(=O)N[C@H]2CC[C@H](Nc3nc(Cl)cc(-c4c[nH]c5ncccc45)n3)CC2)cc1` [Example 471, 1-(trans-4-{[4-chloro-6-(1H-pyrrolo[2,3-b]pyridin-3-yl)pyrimidin-2-yl]amino}cyclohexyl)-3-[4-(dimethylamino)phenyl]urea] yielded a Ki below 10 nM.
Next, `O=C(CN1C(=O)c2ccccc2C1=O)N[C@H]1CC[C@H](Nc2nc(Cl)cc(-c3c[nH]c4ncccc34)n2)CC1` [Example 472, N-(trans-4-{[4-chloro-6-(1H-pyrrolo[2,3-b]pyridin-3-yl)pyrimidin-2-yl]amino}cyclohexyl)-2-(1,3-dioxo-1,3-dihydro-2H-isoindol-2-yl)acetamide]: below 10 nM; `O=C1NCCN1C(=O)N[C@H]1CC[C@H](Nc2nc(Cl)cc(-c3c[nH]c4ncccc34)n2)CC1` [Example 473, N-(trans-4-{[4-chloro-6-(1H-pyrrolo[2,3-b]pyridin-3-yl)pyrimidin-2-yl]amino}cyclohexyl)-2-oxoimidazolidine-1-carboxamide]: below 10 nM.
With `OCCOCCNc1nc(Cl)cc(-c2c[nH]c3ncccc23)n1` [Example 474, 2-(2-{[4-chloro-6-(1H-pyrrolo[2,3-b]pyridin-3-yl)pyrimidin-2-yl]amino}ethoxy)ethanol] the figure was below 10 nM; with `NCCOCCNc1nc(Cl)cc(-c2c[nH]c3ncccc23)n1` [Example 475, N-[2-(2-aminoethoxy)ethyl]-4-chloro-6-(1H-pyrrolo[2,3-b]pyridin-3-yl)pyrimidin-2-amine], below 10 nM; with `Clc1cc(-c2c[nH]c3ncccc23)nc(N[C@H]2CC[C@H](NC3CCCC3)CC2)n1` [Example 477, trans-N-[4-chloro-6-(1H-pyrrolo[2,3-b]pyridin-3-yl)pyrimidin-2-yl]-N′-cyclopentylcyclohexane-1,4-diamine], below 10 nM.
Next, `O=C(CNC1CCCC1)N[C@H]1CC[C@H](Nc2nc(Cl)cc(-c3c[nH]c4ncccc34)n2)CC1` [Example 478, N-(trans-4-{[4-chloro-6-(1H-pyrrolo[2,3-b]pyridin-3-yl)pyrimidin-2-yl]amino}cyclohexyl)-N~2~-cyclopentylglycinamide]: below 10 nM; `CCCS(=O)(=O)N[C@H]1CC[C@H](Nc2nc(Cl)cc(-c3c[nH]c4ncccc34)n2)CC1` [Example 479, N-(trans-4-{[4-chloro-6-(1H-pyrrolo[2,3-b]pyridin-3-yl)pyrimidin-2-yl]amino}cyclohexyl)propane-1-sulfonamide]: below 10 nM; `CC(=O)N[C@H]1CC[C@H](Oc2nc(Cl)cc(-c3c[nH]c4ncccc34)n2)CC1` [Example 480, N-(trans-4-{[4-chloro-6-(1H-pyrrolo[2,3-b]pyridin-3-yl)pyrimidin-2-yl]oxy}cyclohexyl)acetamide]: 10 to 100 nM.
Molecule `O=S(=O)(N[C@H]1CC[C@H](Nc2nc(Cl)cc(-c3c[nH]c4ncccc34)n2)CC1)c1ccsc1` [Example 481, N-(trans-4-{[4-chloro-6-(1H-pyrrolo[2,3-b]pyridin-3-yl)pyrimidin-2-yl]amino}cyclohexyl)thiophene-3-sulfonamide] showed a Ki below 10 nM.
With `O=S(=O)(N[C@H]1CC[C@H](Nc2nc(Cl)cc(-c3c[nH]c4ncccc34)n2)CC1)c1cccs1` [Example 482, N-(trans-4-{[4-chloro-6-(1H-pyrrolo[2,3-b]pyridin-3-yl)pyrimidin-2-yl]amino}cyclohexyl)thiophene-2-sulfonamide] the figure was below 10 nM; with “N-(3-{[6-chloro-4-(1H-pyrrolo[2,3-b]pyridin-3-yl)pyridin-2-yl]amino}cyclohexyl)-2-(dimethylamino)ethanesulfonamide [Example 154]”, below 10 nM.
With “N-{2-[(3-{[6-chloro-4-(1H-pyrrolo[2,3-b]pyridin-3-yl)pyridin-2-yl]amino}cyclohexyl)sulfamoyl]ethyl}benzamide [Example 169]” the figure was below 10 nM.
Next, “{4-[(4-{[6-chloro-4-(1H-pyrrolo[2,3-b]pyridin-3-yl)pyridin-2-yl]amino}cyclohexyl)amino]piperidin-1-yl}(phenyl)methanone [Example 177]”: below 10 nM.
